Laboratory results reported in ChEMBL document CHEMBL1201862, “PubChem BioAssay data set” (2004).
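Exposure lasted 48 hours, with cells grown in 96-well plates and compounds tested at five concentrations. Here, GI50 denotes the concentration required for 50% inhibition of growth.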 Activity calls are given as the source filed them. Cut-off read from the data, not from the text of the source: active = GI50 up to about 1.1 µM and inactive = higher.

What was measured:
Test in all cases: NCI-60 cell line screen, 48 h
SNB-19 = tested on: SNB-19
COLO 205 = tested on: COLO 205
NCI-H226 = tested on: NCI-H226
SF-295 = tested on: SF-295
UACC-257 = tested on: UACC-257
NCI-H460 = tested on: NCI-H460
SK-MEL-28 = tested on: SK-MEL-28
OVCAR-3 = tested on: OVCAR-3
CCRF-CEM = tested on: CCRF-CEM
MCF7 = tested on: MCF7
OVCAR-8 = tested on: OVCAR-8
IGROV-1 = tested on: IGROV-1
SN12C = tested on: SN12C
SF-268 = tested on: SF-268
KM-20L2 = tested on: KM-20L2
RXF 393 = tested on: RXF 393
SK-MEL-2 = tested on: SK-MEL-2
DMS-273 = tested on: DMS-273
CAKI-1 = tested on: CAKI-1
NCI-H522 = tested on: NCI-H522
XF498 = tested on: XF498
SK-OV-3 = tested on: SK-OV-3
SNB-78 = tested on: SNB-78
Malme-3M = tested on: Malme-3M
NCI/ADR-RES = tested on: NCI/ADR-RES
DLD-1 = tested on: DLD-1
HT-29 = tested on: HT-29
HOP-18 = tested on: HOP-18
KM12 = tested on: KM12
U-251 = tested on: U-251
M19-MEL = tested on: M19-MEL
HCC 2998 = tested on: HCC 2998
DMS-114 = tested on: DMS-114
UO-31 = tested on: UO-31
HCT-15 = tested on: HCT-15
HOP-62 = tested on: HOP-62
OVCAR-4 = tested on: OVCAR-4
HL-60 = tested on: HL-60
SW-620 = tested on: SW-620
OVCAR-5 = tested on: OVCAR-5
SF-539 = tested on: SF-539
MOLT-4 = tested on: MOLT-4
LOX IMVI = tested on: LOX IMVI
UACC-62 = tested on: UACC-62
SK-MEL-5 = tested on: SK-MEL-5
A549 = tested on: A549
RPMI-8226 = tested on: RPMI-8226
A498 = tested on: A498
SNB-75 = tested on: SNB-75
NCI-H23 = tested on: NCI-H23
HOP-92 = tested on: HOP-92
K562 = tested on: K562
EKVX = tested on: EKVX
HCT-116 = tested on: HCT-116

## C[N+](C)(C)CCOC(=O)/C=C/c1c[nH]cn1
SNB-19
  GI50: > 500 µM (inactive)
COLO 205
  GI50: > 500 µM (inactive)
NCI-H226
  GI50: > 500 µM (inactive)
SF-295
  GI50: > 500 µM (inactive)
UACC-257
  GI50: > 500 µM (inactive)
NCI-H460
  GI50: > 500 µM (inactive)
SK-MEL-28
  GI50: > 500 µM (inactive)
OVCAR-3
  GI50: > 500 µM (inactive)
CCRF-CEM
  GI50: > 500 µM (inactive)
MCF7
  GI50: > 500 µM (inactive)
OVCAR-8
  GI50: > 500 µM (inactive)
IGROV-1
  GI50: > 500 µM (inactive)
SN12C
  GI50: > 500 µM (inactive)
SF-268
  GI50: > 500 µM (inactive)
KM-20L2
  GI50: > 500 µM (inactive)
RXF 393
  GI50: > 500 µM (inactive)
SK-MEL-2
  GI50: > 500 µM (inactive)
DMS-273
  GI50: > 500 µM (inactive)
CAKI-1
  GI50: > 500 µM (inactive)
NCI-H522
  GI50: > 500 µM (inactive)
XF498
  GI50: > 500 µM (inactive)
SK-OV-3
  GI50: > 500 µM (inactive)
SNB-78
  GI50: > 500 µM (inactive)
Malme-3M
  GI50: > 500 µM (inactive)
NCI/ADR-RES
  GI50: > 500 µM (inactive)
DLD-1
  GI50: > 500 µM (inactive)
HT-29
  GI50: > 500 µM (inactive)
HOP-18
  GI50: > 500 µM (inactive)
KM12
  GI50: > 500 µM (inactive)
U-251
  GI50: > 500 µM (inactive)
M19-MEL
  GI50: > 500 µM (inactive)
HCC 2998
  GI50: > 500 µM (inactive)
DMS-114
  GI50: > 500 µM (inactive)
UO-31
  GI50: > 500 µM (inactive)
HCT-15
  GI50: > 500 µM
HOP-62
  GI50: > 500 µM (inactive)
OVCAR-4
  GI50: > 500 µM (inactive)
HL-60
  GI50: > 500 µM (inactive)
SW-620
  GI50: > 500 µM (inactive)
OVCAR-5
  GI50: > 356 µM (inactive)
SF-539
  GI50: > 500 µM (inactive)
MOLT-4
  GI50: > 316 µM (inactive)
LOX IMVI
  GI50: > 500 µM (inactive)
UACC-62
  GI50: > 500 µM (inactive)
SK-MEL-5
  GI50: > 500 µM (inactive)
A549
  GI50: > 500 µM (inactive)
RPMI-8226
  GI50: > 500 µM (inactive)
A498
  GI50: > 500 µM (inactive)
SNB-75
  GI50: > 500 µM (inactive)
NCI-H23
  GI50: > 500 µM (inactive)
HOP-92
  GI50: 492 µM (inactive)
K562
  GI50: > 500 µM (inactive)
EKVX
  GI50: > 500 µM (inactive)
HCT-116
  GI50: > 500 µM (inactive)
